According to patent US11472808B2, “Substituted pyrrolo[1,2-c]pyrimidines as hepatitis B antiviral agents” (Enanta Pharmaceuticals, Inc., priority 2019, dated 2022):
pEC50: −log10 of the molar value.

Test system: HBV
Assay: HepAD38 anti-HBV assay: reduction of viral product accumulation (virion DNA qPCR, HBsAg/HBeAg ELISA)
Type: cell-based
Conditions: Hepatitis B virus, 120 h; HepAD38 cells; concentration reducing viral product accumulation by 50% relative to no drug controls; harvest five days after compound addition; read-out: HepAD38 EC50
Method in brief: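 Tetracycline-free HepAD38 cells treated 5 days with compound (1:200 DMSO dilution), or 8 days with media and compound refreshed on d2 and d5. Virion DNA quantified by qPCR; HBsAg or HBeAg by ELISA. EC50 is the concentration reducing viral product accumulation 50% versus no-drug controls.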

Structure (SMILES)	pEC50
O=S(=O)(N[C@H]1CC2=C(c3ccn(C(F)F)n3)[C@H](c3ccc(F)cc3Cl)N=C(c3nccs3)N2C1)c1cccc(C(O)c2ccccn2)c1 (stereo partly shown) [Example 339]	> 7.00
CC1(O)CCN(S(=O)(=O)N[C@H]2CC3=C(c4ccn(C(F)F)n4)[C@H](c4ccc(F)cc4Cl)N=C(c4nccs4)N3C2)CC1 [Example 256]	> 7.00
O=S(=O)(N[C@H]1CC2=C(c3ccn(C(F)F)n3)[C@H](c3ccc(F)cc3Cl)N=C(c3nccs3)N2C1)N1CCC(O)(c2ccccn2)CC1 [Example 266]	> 7.00
O=S(=O)(N[C@H]1CC2=C(c3ccn(C(F)F)n3)[C@H](c3ccc(F)cc3Cl)N=C(c3nccs3)N2C1)N1CCC(F)(F)C1 [Example 276]	> 7.00
CS(=O)(=O)NC1CCN(S(=O)(=O)N[C@H]2CC3=C(c4ccn(C(F)F)n4)[C@H](c4ccc(F)cc4Cl)N=C(c4nccs4)N3C2)C1 (stereo partly shown) [Example 290]	> 7.00
O=S(=O)(N[C@H]1CC2=C(c3ccn(C(F)F)n3)[C@H](c3ccc(F)cc3Cl)N=C(c3nccs3)N2C1)c1ccc(Br)cc1 [Example 389]	> 7.00
O=S(=O)(N[C@H]1CC2=C(c3ccn(C(F)F)n3)[C@H](c3ccc(F)cc3Cl)N=C(c3nccs3)N2C1)N1CC(O)C1 [Example 95]	> 7.00
CS(=O)(=O)Nc1ccc(S(=O)(=O)N[C@H]2CC3=C(c4ccn(C(F)F)n4)[C@H](c4ccc(F)cc4Cl)N=C(c4nccs4)N3C2)cc1 [Example 357]	> 7.00
CS(=O)(=O)C1CN(S(=O)(=O)N[C@H]2CC3=C(c4ccn(C(F)F)n4)[C@H](c4ccc(F)cc4Cl)N=C(c4nccs4)N3C2)C1 [Example 337]	> 7.00
O=S(=O)(N[C@H]1CC2=C(c3ccn(C(F)F)n3)[C@H](c3ccc(F)cc3Cl)N=C(c3nccs3)N2C1)N[C@H]1C[C@H](O)C1 [Example 157]	> 7.00
O=S(=O)(N[C@H]1CC2=C(c3ccn(C(F)F)n3)[C@H](c3ccc(F)cc3Cl)N=C(c3nccs3)N2C1)c1ccc(C(F)(F)F)cc1 [Example 406]	> 7.00
OC/C=C/[C@@]1(F)CC2=C(c3ccn(C(F)F)c3)[C@H](c3ccc(F)cc3Cl)N=C(c3nccs3)N2C1 [Example 175]	6.40 to 7.00
COC(=O)c1ccc(NC(=O)N2CCN([C@H]3CC4=C(c5ccn(C(F)F)n5)[C@H](c5ccc(F)cc5Cl)N=C(c5nccs5)N4C3)CC2)cc1 [Example 46]	< 6.40
O=S(=O)(N[C@H]1CC2=C(c3ccn(C(F)F)n3)[C@H](c3ccc(F)cc3Cl)N=C(c3nccs3)N2C1)c1cccc(-n2cccn2)n1 [Example 423]	6.40 to 7.00
C[C@H](NS(=O)(=O)N[C@H]1CC2=C(c3ccn(C(F)F)n3)[C@H](c3ccc(F)cc3Cl)N=C(c3nccs3)N2C1)c1ccccn1 [Example 160]	> 7.00
CC(C)C[C@@H](NS(=O)(=O)N[C@H]1CC2=C(c3ccn(C(F)F)n3)[C@H](c3ccc(F)cc3Cl)N=C(c3nccs3)N2C1)c1ccccn1 [Example 360]	6.40 to 7.00
O=C(N[C@H]1CC2=C(c3ccn(C(F)F)n3)[C@H](c3ccc(F)cc3Cl)N=C(c3nccs3)N2C1)OC1CCCC1 [Example 252]	< 6.40
O=S(=O)(N[C@H]1CC2=C(c3ccn(C(F)F)n3)[C@H](c3ccc(F)cc3Cl)N=C(c3nccs3)N2C1)[C@H]1CC[C@](O)(c2cccnc2)CC1 [Example 105]	> 7.00
COC(=O)Cc1ccc(S(=O)(=O)N[C@H]2CC3=C(c4ccn(C(F)F)n4)[C@H](c4ccc(F)cc4Cl)N=C(c4nccs4)N3C2)cc1 [Example 35]	> 7.00
O[C@]1(CNCc2ccccc2)CC2=C(c3ccn(C(F)F)n3)[C@H](c3ccc(F)cc3Cl)N=C(c3nccs3)N2C1 [Example 118]	< 6.40
O=C(O)C1CCCN1CCS(=O)(=O)N[C@H]1CC2=C(c3ccn(C(F)F)n3)[C@H](c3ccc(F)cc3Cl)N=C(c3nccs3)N2C1 (stereo partly shown) [Example 65]	< 6.40
COC(=O)c1ccc(Cl)c(S(=O)(=O)N[C@H]2CC3=C(c4ccn(C(F)F)n4)[C@H](c4ccc(F)cc4Cl)N=C(c4nccs4)N3C2)c1 [Example 24]	6.40 to 7.00
COC(=O)c1ccccc1S(=O)(=O)N[C@H]1CC2=C(c3ccn(C(F)F)n3)[C@H](c3ccc(F)cc3Cl)N=C(c3nccs3)N2C1 [Example 4]	6.40 to 7.00
O=S(=O)(C[C@@]1(F)CC2=C(c3ccn(C(F)F)n3)[C@H](c3ccc(F)cc3Cl)N=C(c3nccs3)N2C1)c1ccccc1 [Example 196]	6.40 to 7.00
O=S1(=O)CCCN1[C@H]1CC2=C(c3ccn(C(F)F)n3)[C@H](c3ccc(F)cc3Cl)N=C(c3nccs3)N2C1 [Example 375]	6.40 to 7.00
O=C(N[C@H]1CC2=C(c3ccn(C(F)F)n3)[C@H](c3ccc(F)cc3Cl)N=C(c3nccs3)N2C1)N1CCS(=O)(=O)CC1 [Example 219]	6.40 to 7.00
O=C(N[C@H]1CC2=C(c3ccn(C(F)F)n3)[C@H](c3ccc(F)cc3Cl)N=C(c3nccs3)N2C1)c1ncc[nH]1 [Example 234]	> 7.00

Structure (SMILES)	pEC50
O=S(=O)(NCCCc1ccccn1)N[C@H]1CC2=C(c3ccn(C(F)F)n3)[C@H](c3ccc(F)cc3Cl)N=C(c3nccs3)N2C1 [Example 350]	6.40 to 7.00
O=C(N[C@H]1CC2=C(c3ccn(C(F)F)n3)[C@H](c3ccc(F)cc3Cl)N=C(c3nccs3)N2C1)C1CCCC1 [Example 238]	6.40 to 7.00
COC[C@]1(O)CC2=C(c3ccn(C(F)F)n3)[C@H](c3ccc(F)cc3Cl)N=C(c3nccs3)N2C1 [Example 107]	< 6.40
O[C@]1(CCl)CC2=C(c3ccn(C(F)F)n3)[C@H](c3ccc(F)cc3Cl)N=C(c3nccs3)N2C1 [Example 125]	> 7.00
O=C(O)Cc1ccccc1S(=O)(=O)N[C@H]1CC2=C(c3ccn(C(F)F)n3)[C@H](c3ccc(F)cc3Cl)N=C(c3nccs3)N2C1 [Example 32]	6.40 to 7.00
O[C@]1(CN2CCOCC2)CC2=C(c3ccn(C(F)F)n3)[C@H](c3ccc(F)cc3Cl)N=C(c3nccs3)N2C1 [Example 138]	< 6.40
COC(=O)C1CCCN1CCS(=O)(=O)N[C@H]1CC2=C(c3ccn(C(F)F)n3)[C@H](c3ccc(F)cc3Cl)N=C(c3nccs3)N2C1 (stereo partly shown) [Example 60]	< 6.40
CC1(S(=O)(=O)N[C@H]2CC3=C(c4ccn(C(F)F)n4)[C@H](c4ccc(F)cc4Cl)N=C(c4nccs4)N3C2)CC1 [Example 405]	> 7.00
O=S(=O)(NCc1ncc[nH]1)N[C@H]1CC2=C(c3ccn(C(F)F)n3)[C@H](c3ccc(F)cc3Cl)N=C(c3nccs3)N2C1 [Example 314]	6.40 to 7.00
CC(C)[C@]1(O)CC[C@H](c2ccc(S(=O)(=O)N[C@H]3CC4=C(c5ccn(C(F)F)n5)[C@H](c5ccc(F)cc5Cl)N=C(c5nccs5)N4C3)cc2)CC1 [Example 414]	> 7.00
O=C(O)Cc1ccc(S(=O)(=O)N[C@H]2CC3=C(c4ccn(C(F)F)n4)[C@H](c4ccc(F)cc4Cl)N=C(c4nccs4)N3C2)cc1 [Example 37]	< 6.40
OCC[C@]1(F)CC2=C(c3ccn(C(F)F)n3)[C@H](c3ccc(F)cc3Cl)N=C(c3nccs3)N2C1 [Example 167]	< 6.40
C[C@@H](NC(=O)CC1(S(=O)(=O)N[C@H]2CC3=C(c4ccn(C(F)F)n4)[C@H](c4ccc(F)cc4Cl)N=C(c4nccs4)N3C2)CC1)c1ccccn1 [Example 373]	> 7.00
O=C(O)c1ccc(CS(=O)(=O)N[C@H]2CC3=C(c4ccn(C(F)F)n4)[C@H](c4ccc(F)cc4Cl)N=C(c4nccs4)N3C2)cc1 [Example 36]	> 7.00
OCCOC[C@]1(O)CC2=C(c3ccn(C(F)F)n3)[C@H](c3ccc(F)cc3Cl)N=C(c3nccs3)N2C1 [Example 110]	6.40 to 7.00
O[C@@]1(CN2CCOCC2)CC2=C(c3ccn(C(F)F)n3)[C@H](c3ccc(F)cc3Cl)N=C(c3nccs3)N2C1 [Example 139]	6.40 to 7.00
O=C(O)c1ccccc1S(=O)(=O)N[C@H]1CC2=C(c3ccn(C(F)F)n3)[C@H](c3ccc(F)cc3Cl)N=C(c3nccs3)N2C1 [Example 7]	< 6.40
CS(=O)(=O)NCCS(=O)(=O)N[C@H]1CC2=C(c3ccn(C(F)F)n3)[C@H](c3ccc(F)cc3Cl)N=C(c3nccs3)N2C1 [Example 344]	6.40 to 7.00
O=C(O)CCCCS(=O)(=O)N[C@H]1CC2=C(c3ccn(C(F)F)n3)[C@H](c3ccc(F)cc3Cl)N=C(c3nccs3)N2C1 [Example 19]	6.40 to 7.00
O=S(=O)(N[C@H]1CC2=C(c3ccn(C(F)F)n3)[C@H](c3ccc(F)cc3Cl)N=C(c3nccs3)N2C1)c1ccc([C@H]2CC[C@@](O)(c3ccccn3)CC2)cc1 [Example 384]	> 7.00
O=S(=O)(N[C@H]1CC2=C(c3ccn(C(F)F)n3)[C@H](c3ccc(F)cc3Cl)N=C(c3nccs3)N2C1)c1cccc(Br)n1 [Example 366]	> 7.00
C=CCNC[C@]1(O)CC2=C(c3ccn(C(F)F)n3)[C@H](c3ccc(F)cc3Cl)N=C(c3nccs3)N2C1 [Example 117]	< 6.40
O=C(N[C@H]1CC2=C(c3ccn(C(F)F)n3)[C@H](c3ccc(F)cc3Cl)N=C(c3nccs3)N2C1)c1cccnc1 [Example 227]	> 7.00
CNC(=O)N[C@H]1CC2=C(c3ccn(C(F)F)n3)[C@H](c3ccc(F)cc3Cl)N=C(c3nccs3)N2C1 [Example 199]	6.40 to 7.00
O=C1NCC2(CCN(S(=O)(=O)N[C@H]3CC4=C(c5ccn(C(F)F)n5)[C@H](c5ccc(F)cc5Cl)N=C(c5nccs5)N4C3)CC2)O1 [Example 163]	> 7.00
O=S(=O)(Nc1ccccc1)N[C@H]1CC2=C(c3ccn(C(F)F)n3)[C@H](c3ccc(F)cc3Cl)N=C(c3nccs3)N2C1 [Example 82]	6.40 to 7.00
C#CC1(O)CCN(S(=O)(=O)N[C@H]2CC3=C(c4ccn(C(F)F)n4)[C@H](c4ccc(F)cc4Cl)N=C(c4cccs4)N3C2)CC1 [Example 265]	> 7.00

Test system: not listed separately
Assay: Compound toxicity, ATPLite total ATP levels
Type: cell-based
Conditions: human, HepG2 cells; concentration reducing total ATP levels by 50% relative to no drug controls; ATPLite three days after compound addition
Procedure: Compound toxicity is evaluated by seeding cells at 15,000 cells/well and treating with compound as described above.

Structure (SMILES)	CC50 at 3 days [µM]
O=S(=O)(N[C@H]1CC2=C(c3ccn(C(F)F)n3)[C@H](c3ccc(F)cc3Cl)N=C(c3nccs3)N2C1)c1cccc(C(O)c2ccccn2)c1 (stereo partly shown) [Example 339]	> 25
CC1(O)CCN(S(=O)(=O)N[C@H]2CC3=C(c4ccn(C(F)F)n4)[C@H](c4ccc(F)cc4Cl)N=C(c4nccs4)N3C2)CC1 [Example 256]	> 25
O=S(=O)(N[C@H]1CC2=C(c3ccn(C(F)F)n3)[C@H](c3ccc(F)cc3Cl)N=C(c3nccs3)N2C1)N1CCC(O)(c2ccccn2)CC1 [Example 266]	> 25
O=S(=O)(N[C@H]1CC2=C(c3ccn(C(F)F)n3)[C@H](c3ccc(F)cc3Cl)N=C(c3nccs3)N2C1)N1CCC(F)(F)C1 [Example 276]	< 10
CS(=O)(=O)NC1CCN(S(=O)(=O)N[C@H]2CC3=C(c4ccn(C(F)F)n4)[C@H](c4ccc(F)cc4Cl)N=C(c4nccs4)N3C2)C1 (stereo partly shown) [Example 290]	> 25
O=S(=O)(N[C@H]1CC2=C(c3ccn(C(F)F)n3)[C@H](c3ccc(F)cc3Cl)N=C(c3nccs3)N2C1)c1ccc(Br)cc1 [Example 389]	> 25
O=S(=O)(N[C@H]1CC2=C(c3ccn(C(F)F)n3)[C@H](c3ccc(F)cc3Cl)N=C(c3nccs3)N2C1)N1CC(O)C1 [Example 95]	> 25
CS(=O)(=O)Nc1ccc(S(=O)(=O)N[C@H]2CC3=C(c4ccn(C(F)F)n4)[C@H](c4ccc(F)cc4Cl)N=C(c4nccs4)N3C2)cc1 [Example 357]	> 25
CS(=O)(=O)C1CN(S(=O)(=O)N[C@H]2CC3=C(c4ccn(C(F)F)n4)[C@H](c4ccc(F)cc4Cl)N=C(c4nccs4)N3C2)C1 [Example 337]	> 25
O=S(=O)(N[C@H]1CC2=C(c3ccn(C(F)F)n3)[C@H](c3ccc(F)cc3Cl)N=C(c3nccs3)N2C1)N[C@H]1C[C@H](O)C1 [Example 157]	> 25
